Data published in paper PMC10176470, “Engaging a Non-catalytic Cysteine Residue Drives Potent and Selective Inhibition of Caspase-6” (Journal of the American Chemical Society, 2023).

Legend:
Type in all cases: cell-based
[1] = biological target: proteins of HEK293T cells transiently overexpressing caspase-6 (Homo sapiens, UniProt O14980); conditions: protein XPO1 (O14980); exp_ref Probe; analysis C6
[2] = biological target: proteins of HEK293T cells transiently overexpressing caspase-6 (Homo sapiens, UniProt P04843); conditions: exp_ref Probe; protein RPN1 (P04843); analysis C6
[3] = biological target: proteins of HEK293T cells transiently overexpressing caspase-6 (Homo sapiens, UniProt Q9Y230); conditions: protein RUVBL2 (Q9Y230); exp_ref Probe; analysis C6
[4] = biological target: proteins of HEK293T cells transiently overexpressing caspase-6 (Homo sapiens, UniProt P10809); conditions: protein HSPD1 (P10809)
proteins of HEK293T cells transiently overexpressing caspase-6 (Homo sapiens, UniProt P10809), sequence (P10809 27-573): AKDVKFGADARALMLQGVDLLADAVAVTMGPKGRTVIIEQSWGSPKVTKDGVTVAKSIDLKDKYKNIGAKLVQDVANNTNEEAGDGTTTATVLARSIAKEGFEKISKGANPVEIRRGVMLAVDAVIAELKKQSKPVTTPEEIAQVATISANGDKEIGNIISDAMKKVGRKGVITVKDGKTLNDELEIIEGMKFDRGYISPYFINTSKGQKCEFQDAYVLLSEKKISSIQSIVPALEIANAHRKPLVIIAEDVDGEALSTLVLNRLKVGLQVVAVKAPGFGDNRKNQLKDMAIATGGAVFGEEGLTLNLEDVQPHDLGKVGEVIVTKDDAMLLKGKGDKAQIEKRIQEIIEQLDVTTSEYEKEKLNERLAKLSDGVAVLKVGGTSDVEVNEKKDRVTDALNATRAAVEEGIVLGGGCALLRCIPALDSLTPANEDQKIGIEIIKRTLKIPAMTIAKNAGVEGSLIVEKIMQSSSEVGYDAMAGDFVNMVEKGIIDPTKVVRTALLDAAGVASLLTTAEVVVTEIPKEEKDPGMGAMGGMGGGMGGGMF

[5] = biological target: proteins of HEK293T cells transiently overexpressing caspase-6 (Homo sapiens, UniProt P22314); conditions: exp_ref Probe; protein UBA1 (P22314); analysis C6
[6] = biological target: proteins of HEK293T cells transiently overexpressing caspase-6 (Homo sapiens, UniProt P61619); conditions: exp_ref Probe; protein SEC61A1 (P61619); analysis C6
[7] = biological target: proteins of HEK293T cells transiently overexpressing caspase-6 (Homo sapiens, UniProt Q8IWS0); conditions: exp_ref Probe; protein PHF6 (Q8IWS0); analysis C6
proteins of HEK293T cells transiently overexpressing caspase-6 (Homo sapiens, UniProt Q8IWS0), sequence (Q8IWS0 whole entry): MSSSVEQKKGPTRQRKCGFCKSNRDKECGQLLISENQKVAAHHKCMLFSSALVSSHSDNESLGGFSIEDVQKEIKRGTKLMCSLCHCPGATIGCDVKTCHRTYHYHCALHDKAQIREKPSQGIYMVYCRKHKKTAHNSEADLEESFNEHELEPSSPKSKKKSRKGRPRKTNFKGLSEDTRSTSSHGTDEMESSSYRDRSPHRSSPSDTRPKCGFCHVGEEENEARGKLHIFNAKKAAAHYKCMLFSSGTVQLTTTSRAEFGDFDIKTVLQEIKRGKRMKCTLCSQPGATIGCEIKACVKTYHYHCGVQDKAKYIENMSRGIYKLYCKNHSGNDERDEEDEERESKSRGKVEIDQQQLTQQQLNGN

[8] = biological target: proteins of HEK293T cells transiently overexpressing caspase-6 (Homo sapiens, UniProt Q9BZZ5); conditions: exp_ref Probe; protein API5 (Q9BZZ5); analysis C6
[9] = biological target: proteins of HEK293T cells transiently overexpressing caspase-6 (Homo sapiens, UniProt Q07020); conditions: Probe; protein RPL18 Q07020
[10] = biological target: proteins of HEK293T cells transiently overexpressing caspase-6 (Homo sapiens, UniProt Q13263); conditions: protein TRIM28 (Q13263)
proteins of HEK293T cells transiently overexpressing caspase-6 (Homo sapiens, UniProt Q13263), sequence (Q13263 whole entry): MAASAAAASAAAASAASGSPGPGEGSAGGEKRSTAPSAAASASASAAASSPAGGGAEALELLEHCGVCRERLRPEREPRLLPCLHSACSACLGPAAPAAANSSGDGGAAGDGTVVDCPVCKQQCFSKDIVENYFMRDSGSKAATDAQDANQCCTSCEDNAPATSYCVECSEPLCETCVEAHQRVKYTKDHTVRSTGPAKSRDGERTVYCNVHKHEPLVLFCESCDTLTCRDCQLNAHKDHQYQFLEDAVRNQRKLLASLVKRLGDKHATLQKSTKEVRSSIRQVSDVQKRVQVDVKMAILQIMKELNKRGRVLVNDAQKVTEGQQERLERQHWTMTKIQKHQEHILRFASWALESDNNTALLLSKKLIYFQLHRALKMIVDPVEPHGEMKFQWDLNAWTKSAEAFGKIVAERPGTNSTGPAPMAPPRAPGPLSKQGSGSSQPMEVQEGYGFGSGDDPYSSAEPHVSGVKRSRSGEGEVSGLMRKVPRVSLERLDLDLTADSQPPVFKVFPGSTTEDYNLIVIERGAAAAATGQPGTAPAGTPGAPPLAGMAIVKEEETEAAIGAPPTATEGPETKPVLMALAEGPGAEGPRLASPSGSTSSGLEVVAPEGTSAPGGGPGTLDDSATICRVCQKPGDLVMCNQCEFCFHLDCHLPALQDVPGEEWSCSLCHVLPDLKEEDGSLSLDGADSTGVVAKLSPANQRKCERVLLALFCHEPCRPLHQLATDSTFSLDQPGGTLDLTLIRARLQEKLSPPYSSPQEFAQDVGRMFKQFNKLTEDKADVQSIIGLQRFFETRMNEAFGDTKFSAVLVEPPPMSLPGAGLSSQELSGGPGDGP

[11] = biological target: proteins of HEK293T cells transiently overexpressing caspase-6 (Homo sapiens, UniProt Q92900); conditions: Probe; protein UPF1 Q92900
proteins of HEK293T cells transiently overexpressing caspase-6 (Homo sapiens, UniProt Q92900), sequence (Q92900 whole entry): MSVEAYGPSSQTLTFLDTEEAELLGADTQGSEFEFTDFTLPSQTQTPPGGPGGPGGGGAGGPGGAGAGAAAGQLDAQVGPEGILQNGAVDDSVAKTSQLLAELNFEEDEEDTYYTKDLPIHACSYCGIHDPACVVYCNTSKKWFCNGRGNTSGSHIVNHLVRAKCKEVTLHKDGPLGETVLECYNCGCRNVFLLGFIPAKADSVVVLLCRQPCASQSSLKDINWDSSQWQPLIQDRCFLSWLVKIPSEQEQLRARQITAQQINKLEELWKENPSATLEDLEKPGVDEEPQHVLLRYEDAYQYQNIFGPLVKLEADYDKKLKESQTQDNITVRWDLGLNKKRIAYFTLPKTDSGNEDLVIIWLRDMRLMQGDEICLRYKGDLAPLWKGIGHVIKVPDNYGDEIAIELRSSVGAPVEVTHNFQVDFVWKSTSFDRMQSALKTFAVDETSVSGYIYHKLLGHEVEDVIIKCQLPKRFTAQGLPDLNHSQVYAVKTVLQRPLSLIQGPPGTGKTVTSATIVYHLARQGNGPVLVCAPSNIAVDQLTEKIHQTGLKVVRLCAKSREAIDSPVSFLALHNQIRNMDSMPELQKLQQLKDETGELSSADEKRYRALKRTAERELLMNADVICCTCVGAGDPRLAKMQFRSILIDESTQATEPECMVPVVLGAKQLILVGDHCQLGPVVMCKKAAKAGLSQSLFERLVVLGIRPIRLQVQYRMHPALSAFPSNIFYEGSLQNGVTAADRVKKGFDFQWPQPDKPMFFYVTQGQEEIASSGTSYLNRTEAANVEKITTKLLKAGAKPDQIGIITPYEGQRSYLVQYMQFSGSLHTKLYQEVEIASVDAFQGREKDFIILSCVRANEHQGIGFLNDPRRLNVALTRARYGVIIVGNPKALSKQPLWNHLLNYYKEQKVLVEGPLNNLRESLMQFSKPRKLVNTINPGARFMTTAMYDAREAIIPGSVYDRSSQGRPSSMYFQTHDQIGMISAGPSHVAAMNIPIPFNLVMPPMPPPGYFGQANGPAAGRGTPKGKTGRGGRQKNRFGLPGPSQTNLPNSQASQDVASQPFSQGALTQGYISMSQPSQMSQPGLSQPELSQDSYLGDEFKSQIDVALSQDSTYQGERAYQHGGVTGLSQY

[12] = biological target: proteins of HEK293T cells transiently overexpressing caspase-6 (Homo sapiens, UniProt P23528); conditions: protein CFL1 (P23528)
proteins of HEK293T cells transiently overexpressing caspase-6 (Homo sapiens, UniProt P23528), sequence (P23528 whole entry): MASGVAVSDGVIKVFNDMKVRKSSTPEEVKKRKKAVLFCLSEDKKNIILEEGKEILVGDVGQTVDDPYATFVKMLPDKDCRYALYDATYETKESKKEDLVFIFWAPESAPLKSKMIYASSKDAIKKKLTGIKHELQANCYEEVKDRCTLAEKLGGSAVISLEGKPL

[13] = biological target: proteins of HEK293T cells transiently overexpressing caspase-6 (Homo sapiens, UniProt P52292); conditions: exp_ref Probe; protein KPNA2 (P52292); analysis C6
[14] = biological target: proteins of HEK293T cells transiently overexpressing caspase-6 (Homo sapiens, UniProt Q12905); conditions: exp_ref Probe; protein ILF2 (Q12905); analysis C6
[15] = biological target: proteins of HEK293T cells transiently overexpressing caspase-6 (Homo sapiens, UniProt P46777); conditions: exp_ref Probe; protein RPL5 (P46777); analysis C6
[16] = biological target: proteins of HEK293T cells transiently overexpressing caspase-6 (Homo sapiens, UniProt O75390); conditions: exp_ref Probe; protein CS (O75390); analysis C6
[17] = biological target: proteins of HEK293T cells transiently overexpressing caspase-6 (Homo sapiens, UniProt P14618); conditions: protein PKM (P14618)
proteins of HEK293T cells transiently overexpressing caspase-6 (Homo sapiens, UniProt P14618), sequence (P14618 whole entry): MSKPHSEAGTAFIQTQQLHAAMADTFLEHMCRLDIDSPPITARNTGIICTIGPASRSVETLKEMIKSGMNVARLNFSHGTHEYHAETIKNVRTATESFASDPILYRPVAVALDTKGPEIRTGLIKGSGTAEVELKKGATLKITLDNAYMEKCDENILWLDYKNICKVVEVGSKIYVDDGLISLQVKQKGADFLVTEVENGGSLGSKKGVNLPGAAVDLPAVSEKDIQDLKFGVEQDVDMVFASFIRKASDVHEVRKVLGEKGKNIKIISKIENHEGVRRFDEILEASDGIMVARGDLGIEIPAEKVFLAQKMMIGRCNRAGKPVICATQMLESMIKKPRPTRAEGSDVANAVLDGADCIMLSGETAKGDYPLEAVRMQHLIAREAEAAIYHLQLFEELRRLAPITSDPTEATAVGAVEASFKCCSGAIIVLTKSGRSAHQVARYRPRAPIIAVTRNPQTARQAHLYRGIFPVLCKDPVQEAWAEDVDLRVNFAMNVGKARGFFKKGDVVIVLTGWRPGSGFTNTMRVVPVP

[18] = biological target: proteins of HEK293T cells transiently overexpressing caspase-6 (Homo sapiens, UniProt P38606); conditions: exp_ref Probe; protein ATP6V1A (P38606); analysis C6
[19] = biological target: proteins of HEK293T cells transiently overexpressing caspase-6 (Homo sapiens, UniProt P62249); conditions: exp_ref Probe; protein RPS16 (P62249); analysis C6
[20] = biological target: T1, proteins of HEK293T cells transiently overexpressing caspase-6 (Homo sapiens, UniProt P28074)
T1 sequence (P28074 60-263): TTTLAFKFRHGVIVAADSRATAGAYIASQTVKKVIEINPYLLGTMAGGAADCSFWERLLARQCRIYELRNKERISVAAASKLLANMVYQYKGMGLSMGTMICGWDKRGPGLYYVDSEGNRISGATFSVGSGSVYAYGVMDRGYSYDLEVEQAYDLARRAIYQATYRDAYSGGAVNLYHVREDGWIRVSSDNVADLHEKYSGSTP

[21] = biological target: proteins of HEK293T cells transiently overexpressing caspase-6 (Homo sapiens, UniProt Q99714); conditions: exp_ref Probe; protein HSD17B10 (Q99714); analysis C6
proteins of HEK293T cells transiently overexpressing caspase-6 (Homo sapiens, UniProt Q99714), sequence (Q99714 whole entry): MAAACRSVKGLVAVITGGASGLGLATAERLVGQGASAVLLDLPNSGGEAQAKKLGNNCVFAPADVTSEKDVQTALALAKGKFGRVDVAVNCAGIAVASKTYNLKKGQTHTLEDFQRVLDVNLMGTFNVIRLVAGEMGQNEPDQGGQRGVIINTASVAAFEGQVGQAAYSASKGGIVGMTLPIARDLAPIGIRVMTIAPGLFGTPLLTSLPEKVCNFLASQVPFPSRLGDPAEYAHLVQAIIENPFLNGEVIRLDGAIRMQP

[22] = biological target: proteins of HEK293T cells transiently overexpressing caspase-6 (Homo sapiens, UniProt P25786); conditions: Probe; protein PSMA1 P25786
[23] = tested on: proteins of HEK293T cells transiently overexpressing caspase-6; conditions: exp_ref Probe; protein CBSL (P0DN79); analysis C6
[24] = biological target: proteins of HEK293T cells transiently overexpressing caspase-6 (Homo sapiens, UniProt P0DPI2); conditions: exp_ref Probe; protein C21orf33 (P30042); analysis C6

proteins of HEK293T cells transiently overexpressing caspase-6 (Homo sapiens, UniProt O14980), sequence (O14980 whole entry): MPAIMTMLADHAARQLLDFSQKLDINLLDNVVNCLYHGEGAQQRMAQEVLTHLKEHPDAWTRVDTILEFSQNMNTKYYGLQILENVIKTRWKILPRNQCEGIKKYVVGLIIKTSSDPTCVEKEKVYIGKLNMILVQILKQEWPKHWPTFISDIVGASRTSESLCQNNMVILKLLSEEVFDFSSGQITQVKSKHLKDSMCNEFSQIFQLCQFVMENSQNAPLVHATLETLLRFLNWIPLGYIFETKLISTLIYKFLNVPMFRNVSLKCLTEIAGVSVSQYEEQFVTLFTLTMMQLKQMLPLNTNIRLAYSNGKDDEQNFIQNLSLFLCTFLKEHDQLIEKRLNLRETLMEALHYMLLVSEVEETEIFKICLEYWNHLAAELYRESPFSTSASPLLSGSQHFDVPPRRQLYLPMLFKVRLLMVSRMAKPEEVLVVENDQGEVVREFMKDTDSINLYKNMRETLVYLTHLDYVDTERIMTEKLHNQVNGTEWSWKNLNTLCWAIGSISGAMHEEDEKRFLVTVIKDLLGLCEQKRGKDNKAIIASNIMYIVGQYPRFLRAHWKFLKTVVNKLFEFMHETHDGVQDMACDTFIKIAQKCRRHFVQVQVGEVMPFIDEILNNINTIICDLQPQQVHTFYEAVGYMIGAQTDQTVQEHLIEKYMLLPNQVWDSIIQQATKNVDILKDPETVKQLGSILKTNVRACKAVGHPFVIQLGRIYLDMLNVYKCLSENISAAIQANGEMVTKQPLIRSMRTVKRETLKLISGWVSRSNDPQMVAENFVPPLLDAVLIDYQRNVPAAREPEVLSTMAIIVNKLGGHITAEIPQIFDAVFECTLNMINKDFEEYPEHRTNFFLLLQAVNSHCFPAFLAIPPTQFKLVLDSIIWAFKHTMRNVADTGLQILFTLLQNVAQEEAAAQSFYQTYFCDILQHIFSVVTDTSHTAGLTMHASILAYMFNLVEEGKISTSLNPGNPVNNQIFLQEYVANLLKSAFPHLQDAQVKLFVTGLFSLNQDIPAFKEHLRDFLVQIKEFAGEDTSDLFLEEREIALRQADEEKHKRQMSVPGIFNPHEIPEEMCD

## C#CCOc1ccc([C@@H]2C[C@@H](C(=O)Nc3ccc(OC(F)(F)F)cc3)CN(S(=O)(=O)C=C)C2)cc1 (relative stereo) [13-t]
[1]
  enrich.exp.med: 1.753
[2]
  enrich.exp.med: 1.117
[3]
  enrich.exp.med: 1.2493
[4]; exp_ref Probe, analysis C6
  enrich.exp.med: 0.7989
[4]
  enrich.exp.med.lin: 1.7398
  enrich.exp.med.log2: 0.7989
[5]
  enrich.exp.med: 0.3187
[6]
  enrich.exp.med: 0.5807
[7]
  enrich.exp.med: 1.065
[8]
  enrich.exp.med: 0.9484
[9]
  enrich.exp.med: -0.6313
[10]; exp_ref Probe, analysis C6
  enrich.exp.med: 0.8833
[10]
  enrich.exp.med.lin: 1.845
  enrich.exp.med.log2: 0.8833
[11]
  enrich.exp.med: -0.4971
[12]; exp_ref Probe, analysis C6
  enrich.exp.med: 0.4078
[12]
  enrich.exp.med.lin: 1.327
  enrich.exp.med.log2: 0.4078
[13]
  enrich.exp.med: 0.5159
[14]
  enrich.exp.med: 0.9081
[15]
  enrich.exp.med: 0.3142
[16]
  enrich.exp.med: -0.1126
[17]; exp_ref Probe, analysis C6
  enrich.exp.med: 0.4939
[17]
  enrich.exp.med.lin: 1.408
  enrich.exp.med.log2: 0.4939
[18]
  enrich.exp.med: 0.7344
[19]
  enrich.exp.med: -0.2776
[20]; Probe, protein PSMB5 P28074
  enrich.exp.med: -2.323
[20]; protein PSMB5 (P28074)
  enrich.exp.med.lin: 0.1999
  enrich.exp.med.log2: -2.323
[21]
  enrich.exp.med: 0.1684
[22]
  enrich.exp.med: -2.151
[23]
  enrich.exp.med: -0.1387
[24]
  enrich.exp.med: -0.3681
